Experiment: gradient 5% acetonitrile 3 min, to 50% in 2 min, to 85% in 15 min, held 3 min, 100 µL/min
Settings: column: Zorbax Extend-C18 2.1 x 50 mm; eluents: water / acetonitrile, 0.1% formic acid
Outline: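 The system's dead and dwell volumes were 40 μL and 900 μL, with a Zorbax Extend-C18 column (2.1 × 50 mm, 1.8 μm) run at 100 μL/min in water and acetonitrile containing 0.1% formic acid each. Pure standards were analyzed in mixtures of ~100 molecules by HPLC–quadrupole time-of-flight mass spectrometry in positive and negative ionization mode. Retention time was assigned from computationally picked, manually inspected adduct peaks.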

| SMILES | RP-LC retention time [s] |
| --- | --- |
| O=C(c1ccccc1Br)N1CCN(c2nc(CN3CCCC3)cs2)CC1 | 627 |
| O=C(c1cc2c(s1)CCCC2)N1CCc2[nH]cnc2C12CCCCC2 | 692 |
| CCc1cc(C(=O)N2CCCC2)nc2cc(-c3cccs3)nn12 | 655 |
| O=C(Cc1cccc(C(F)(F)F)c1)Nc1cccn2cnnc12 | 744 |
| COCC1(O)CCOC2(CCN(Cc3ccccc3C)CC2)C1 (centres undefined) | 591 |
| O=C(CCCN1CCC(O)(c2cccc(C(F)(F)F)c2)CC1)c1ccc(F)cc1 | 805 |
| CCOc1ccccc1NS(=O)(=O)c1cc(-c2nc(C(C)(C)C)cs2)cs1 | 1310 |
| O=C(N[C@@H]1CN(c2ncccn2)C[C@H]1CO)c1ccc2c(c1)OCO2 | 606 |
| CCOc1ccc(NC(=O)N2C[C@H]3C[C@H](C2)[C@H]2CCCC(=O)N2C3)cc1 | 654 |
| CC1CCN(C(=O)C2CCN(S(=O)(=O)c3ccc4c(c3)sc(=O)n4C(C)C)CC2)CC1 | 969 |
| O=C(Nc1cc2c3c(c1)CCC(=O)N3CCC2)C(=O)Nc1ccc2c(c1)OCO2 | 747 |
| CN(C)c1ccc(CCCNS(=O)(=O)c2ccc(Cl)s2)cc1 | 655 |
| COc1ccc(S(=O)(=O)Nc2ccc3nc(-c4ccc(F)cc4)cc(OC)c3c2)cc1 | 774 |
| O=C(O)c1ccc2c(c1)CC(=O)N2Cc1cccc(F)c1 | 729 |
| Cc1cc(C)c(NS(=O)(=O)c2cc(-c3nc(C)c(C)s3)sc2C)c(C)c1 | 1260 |
| CN(Cc1ccco1)S(=O)(=O)c1ccc(C(=O)Nc2cccc(Cl)c2Cl)cc1 | 1010 |
| c1ccc(-c2nnc(-c3ccncc3)o2)cc1 | 715 |
| CCCCNC(=O)CN1CCN(C(=O)c2sc3ncccc3c2-n2cccc2)CC1 | 647 |
| Cc1ccn(C(=O)c2ccc(NC(=O)CC(C)C)cc2)n1 | 804 |

| SMILES | RP-LC retention time [s] |
| --- | --- |
| COc1ccc(Cc2nc(-c3cccc(-c4ccn[nH]4)c3)no2)cc1OC | 830 |
| CC(C)NC(=O)N1CCC(Oc2ccccc2)C1 (centres undefined) | 764 |
| Cc1nc(-c2ccccc2)cc2nn(CC(=O)N3CCc4ccccc43)c(=O)n12 | 966 |
| CCCN1CCN(c2ncc3c(n2)CCN(Cc2ccccc2OCC)C3)CC1 | 565 |
| COc1ccc(N2CCN(C(=O)Cn3nc(C(=O)N4CCCC4)c4ccccc43)CC2)cc1 | 753 |
| O=C(Nc1ccccc1)Nc1c(-c2ccc(F)cc2)nc2ccccn12 | 662 |
| Cc1noc(C)c1CN1CCN(C(=O)Cc2ccccc2Cl)CC1 | 563 |
| CCCNC(=O)Nc1ccc(NC(=O)N2CCC(C(=O)NCC)CC2)cc1 | 588 |
| O=C(CN1C(=O)NC2(CCCCC2)C1=O)Nc1ccccc1 | 722 |
| COc1ccc(-c2csc(NC3=NS(=O)(=O)c4ccccc43)n2)cc1 | 886 |
| CN1CCN(S(=O)(=O)c2ccc3nn(CCc4ccccc4)c(=O)n3c2)CC1 | 627 |
| Cc1cccc(NC(=O)CS(=O)(=O)Cc2ccccc2)n1 | 707 |
| CC(C)NC(=O)c1cccn(-c2ccc(NC(=O)C(C)(C)C)cc2)c1=O | 749 |
| Cc1cccc(N(C)C(=O)c2cccc(NC(=O)[C@H]3[C@@H]4C[C@@H]5[C@H]3C(=O)O[C@@H]5C4)c2)c1 | 782 |
| CCOC(=O)CCC(=O)Nc1cccc2ccc(OC)nc12 | 904 |
| CC(C(=O)Nc1nc(-c2ccccc2)cs1)N1C(=O)C2C3C=CC(C3)C2C1=O (centres undefined) | 955 |
| COc1cccc(NC(=O)Nc2cc3c(cc2Oc2ccccc2)n(C)c(=O)n3C)c1 | 804 |
| CC1CCCN(CC2CCN(S(=O)(=O)Cc3ccccc3F)CC2)C1 (centres undefined) | 650 |
| COc1ccc(S(=O)(=O)Cc2nc(-c3ccc(Br)cc3)no2)cc1 | 1040 |

Now from value to compound:

| RP-LC retention time [s] | SMILES |
| --- | --- |
| 753 | Cc1cc(NS(=O)(=O)c2ccc(F)cc2C)n(C2CCS(=O)(=O)C2)n1 (centres undefined) |
| 973 | COc1ccc(NC(=O)c2cn(-c3cc(N4CCCC(C)C4)ncn3)cn2)cc1OC (centres undefined) |
| 952 | CCOC(=O)C1CCN(c2ncnc3c2cnn3-c2ccc(OC)cc2)CC1 |
| 722 | CC1(C)C(=O)Nc2ccc(S(=O)(=O)N3CCC(c4noc(-c5cccnc5)n4)C3)cc21 (centres undefined) |
| 887 | Cc1c(C(=O)NC2CCCC2)cnn1-c1cc(-c2nc(C3CC3)no2)ccn1 |
| 1100 | O=c1c2ccccc2n(Cc2nc(-c3cccc(C(F)(F)F)c3)no2)c(=O)n1CC1CCCO1 (centres undefined) |
| 875 | COc1ccc(OC)c(CNC(=O)CCC2CCN(S(=O)(=O)c3ccccc3)CC2)c1 |
| 719 | COc1cccc(CNC(=O)C(=O)NCC2CCN(C(=O)NC(C)(C)C)CC2)c1 |
| 984 | Cc1ccccc1Nc1c(-c2c(F)cccc2Cl)nc2ccc(Cl)cn12 |
| 780 | CCOC(=O)c1[nH]c(C)c(CCC(=O)NCc2ccc3c(c2)OCO3)c1C |
| 643 | COc1ccc(CN2C(=O)COC[C@H]2C(=O)NC2CC2)c(OC)c1 |
| 626 | O=C(NCc1ccc(N2CCOCC2)nc1)c1cccc(Br)c1 |
| 785 | COc1ccc(NC(=O)N2CCC3(C2)C(=O)N(C)c2ccccc23)cc1F (centres undefined) |
| 638 | O=C(Cn1ccc2ccc(N3CCOCC3)nc21)NC1CCN(Cc2ccccc2)CC1 |
| 628 | O=C(NCC1CCOCC1)Nc1c(F)cccc1F |
| 695 | Cc1ccc(C)c(-c2cc(C(N)=O)[nH]n2)c1 |
| 819 | COc1ccc2sc(OC3CCN(C(=O)NC(C)C)CC3)nc2c1 |
| 744 | COC(=O)c1ccc2c(c1)N(Cc1cccc(F)c1)C(=O)CS2=O (centres undefined) |
| 564 | CCN1CCN(c2ncc3c(n2)CC(c2cc(OC)c(OC)c(OC)c2)CC3=O)CC1 (centres undefined) |
| 583 | O=C(NCCc1ccccn1)C1CCCN(c2nnc3ccc(C(F)(F)F)cn23)C1 (centres undefined) |
| 744 | COc1cc(CNC(=O)c2ccc(Cc3c(C)noc3C)o2)cc(OC)c1OC |
| 620 | Cc1cc(C)c2[nH]c3c(c(=O)c2c1)CN(CC(=O)NCc1ccc2c(c1)OCO2)CC3 |
| 831 | COc1ccc(S(=O)(=O)N2CCCC(C(=O)Nc3ccc(F)cc3)C2)cc1OC (centres undefined) |
| 658 | CCn1cnnc1CC1CCN(S(=O)(=O)Cc2ccccc2F)C1 (centres undefined) |
| 740 | CCc1nc(-c2cc(S(=O)(=O)NCC(=O)NC3CC3)c(C)s2)no1 |
| 975 | CCc1ccc(CNC(=O)CN2C(=O)C3CCCCN3c3ccc(S(=O)(=O)N(C)C)cc32)cc1 (centres undefined) |

| RP-LC retention time [s] | SMILES |
| --- | --- |
| 849 | Cc1cc(=O)n(CC(=O)Nc2cc(F)ccc2F)c(N2CCc3ccccc3C2)n1 |
| 577 | O=C(NCc1ccccn1)C1CCN(c2cc(Oc3ccccc3)ncn2)CC1 |
| 740 | Cc1nn(-c2ccccc2)c(C)c1S(=O)(=O)N1CCC(C(=O)N2CCOCC2)CC1 |
| 1110 | Cc1ccc(-c2nc(-c3ccc(S(=O)(=O)N4CCC(C(=O)N5CCCC5)CC4)cc3)no2)cc1F |
| 573 | CCN(CCNC(=O)c1cc2c(s1)CN(C(C)C)C2)c1cccc(C)c1 |
| 1230 | O=C(Nc1cccc(Cl)c1)c1nn2c(C(F)(F)F)cc(-c3ccco3)nc2c1Cl |
| 870 | Cc1ccc(N2CCC(NC(=O)Nc3ccccc3)C2=O)cc1C (centres undefined) |
| 921 | CC(C)c1ccc(OCC(=O)Nc2cc3c(cc2N2CCOCC2)n(C)c(=O)c(=O)n3C)cc1 |
| 823 | CCc1onc(C)c1C1CCCN1C(=O)Cc1ccccc1F (centres undefined) |
| 646 | Cc1cnc(C2CCOCC2)n1C1CCCN(S(=O)(=O)Cc2ccccc2)C1 (centres undefined) |
| 1040 | O=C(NCCc1ccccc1)c1nnc(-c2ccc(S(=O)(=O)N3CCCCC3)cc2)o1 |
| 832 | COc1ccc(C)cc1NC(=O)C1CCc2nc(N3CCOCC3)ncc2C1 (centres undefined) |
| 904 | Cc1cc(-c2nnc(C3CCC3)o2)c(C)n1CC(=O)NCc1ccc(F)c(Cl)c1 |
| 669 | CC(=O)Nc1ccc(CCc2nc3ccc(C(=O)NCc4cccc(Br)c4)cc3[nH]2)cc1 |
| 804 | Cc1cc(F)ccc1N1C(=O)CN(S(C)(=O)=O)CC1(C)C(=O)NCc1ccccc1 (centres undefined) |
| 715 | Cc1cc2c(cc1NC(=O)CCc1ccccc1)n(C)c(=O)n2C |
| 1210 | COc1ccc(Cl)cc1NC(=O)c1cc(S(=O)(=O)N2CCC(C)CC2)cn1C |
| 832 | COc1ccc(NC(=O)Cn2nc3c(Oc4ccc(Cl)cc4)nccn3c2=O)cc1 |
| 644 | CNC(=O)C1CCCN(c2nc3ncn(CC(=O)Nc4cc(F)ccc4C)c(=O)c3s2)C1 (centres undefined) |
| 778 | Cc1c(C(=O)N2CCOCC2)sc2nc(-c3ccccc3)c(NC(C)(C)C)n12 |
| 992 | O=C(Cn1cccc(-c2nc(-c3ccc(F)cc3)no2)c1=O)Nc1ccc(Br)cc1 |
| 1010 | Cc1cc2nn(CC(=O)N(C)c3ccccc3)c(=O)n2c(Nc2ccc(F)cc2)n1 |
| 701 | COc1ccc(S(=O)(=O)N2CCCC(C(N)=O)C2)cc1Cl (centres undefined) |
| 598 | Cc1cc(=O)n(CC(=O)Nc2ccc(F)c(F)c2)c(N)n1 |
| 558 | O=C(Cc1ccc2ccccc2c1)Nc1nnc(-c2ccno2)o1 |
